Laboratory results as given in ChEMBL document CHEMBL5625192, “Discovery of Ibrutinib-based BTK PROTACs with in vivo anti-inflammatory efficacy by inhibiting NF-κB activation” (Eur J Med Chem, 2023).
Values after ≈ are worked out from the molar mass of the structure shown. Active and inactive are the calls of the source. The rule behind the calls is not given here.

Columns and labels:
[1] = Oral bioavailability in Sprague-Dawley rat at 20 mg/kg by UPLC analysis; format: ADME, organism-based; conditions: in vivo
[2] = Half-life in Sprague-Dawley rat at 20 mg/kg, po by UPLC analysis; format: ADME, organism-based; conditions: in vivo
[3] = target: T1, Protein cereblon/Tyrosine-protein kinase BTK (Homo sapiens, UniProt Q06187+Q96SW2); assay: PROTAC activity at CRBN/BTK in human MINO cells assessed as induction of BTK degradation by measuring maximal efficacy incubated for 24 hrs by Western blot analysis relative to control; format: cell-based
Target sequence in this assay (Q06187 2-659 limits assumed): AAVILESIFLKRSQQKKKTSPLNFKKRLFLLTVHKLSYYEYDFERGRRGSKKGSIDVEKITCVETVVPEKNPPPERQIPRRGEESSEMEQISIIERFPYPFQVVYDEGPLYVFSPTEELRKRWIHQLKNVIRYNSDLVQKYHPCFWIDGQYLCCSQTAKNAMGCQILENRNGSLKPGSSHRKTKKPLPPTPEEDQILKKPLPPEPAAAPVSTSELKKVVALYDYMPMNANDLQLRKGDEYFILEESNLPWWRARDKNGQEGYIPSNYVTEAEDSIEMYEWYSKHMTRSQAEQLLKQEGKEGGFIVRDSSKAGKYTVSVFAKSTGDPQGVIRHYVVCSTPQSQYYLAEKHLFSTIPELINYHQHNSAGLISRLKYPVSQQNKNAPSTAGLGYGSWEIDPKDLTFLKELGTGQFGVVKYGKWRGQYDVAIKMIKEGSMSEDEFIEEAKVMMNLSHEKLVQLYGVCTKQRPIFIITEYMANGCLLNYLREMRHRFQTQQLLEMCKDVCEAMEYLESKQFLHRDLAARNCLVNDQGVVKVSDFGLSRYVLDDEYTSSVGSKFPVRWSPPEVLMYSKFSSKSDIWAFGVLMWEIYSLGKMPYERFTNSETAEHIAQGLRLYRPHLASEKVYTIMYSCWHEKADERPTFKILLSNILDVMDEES
Target sequence in this assay (Q96SW2 whole entry partner): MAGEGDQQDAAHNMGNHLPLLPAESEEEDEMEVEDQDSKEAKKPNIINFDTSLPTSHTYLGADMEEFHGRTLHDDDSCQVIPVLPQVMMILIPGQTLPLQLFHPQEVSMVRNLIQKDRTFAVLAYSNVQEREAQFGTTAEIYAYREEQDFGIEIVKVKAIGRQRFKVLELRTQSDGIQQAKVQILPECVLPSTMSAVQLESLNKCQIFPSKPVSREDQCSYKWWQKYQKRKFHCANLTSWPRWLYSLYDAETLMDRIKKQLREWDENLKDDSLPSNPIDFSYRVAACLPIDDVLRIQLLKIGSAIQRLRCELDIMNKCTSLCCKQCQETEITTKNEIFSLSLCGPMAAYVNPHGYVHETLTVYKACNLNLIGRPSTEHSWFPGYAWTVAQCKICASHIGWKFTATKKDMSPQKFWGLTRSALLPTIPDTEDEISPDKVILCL

RAW264.7 [4] = assay: Anti-inflammatory activity in LPS-stimulated mouse RAW264.7 cells assessed as reduction in IL-1beta mRNA level preincubated with compound for 2 hrs followed by LPS stimulation and measured after 3 hrs […]; format: functional, cell-based; conditions: dose 0.1-10 µM, time 5.0 hrs
RAW264.7 [5] = assay: Cytotoxicity against mouse RAW264.7 cells assessed as reduction in cell viability upto 10 uM incubated for 24 hrs by CCK8 assay; format: toxicity, cell-based; conditions: raw264.7, 24 h
RAW264.7 [6] = assay: Inhibition of NF-kappaB activation in LPS-stimulated mouse RAW264.7 cells assessed as reduction in phosphorylated BTK level at 0.1 to 10 uM preincubated with compound for 1 hrs followed by LPS stimulation and measured after 24 hrs by Western blot analysis; format: cell-based; conditions: dose 0.1-10 µM, time 25.0 hrs
RAW264.7 [7] = assay: Inhibition of NF-kappaB activation in LPS-stimulated mouse RAW264.7 cells assessed as inhibition of IkappaB-alpha phosphorylation at 0.1 to 10 uM preincubated with compound for 1 hrs followed by LPS stimulation and measured after 24 hrs by Western blot analysis; format: cell-based; conditions: dose 0.1-10 µM, time 25.0 hrs
[8] = target: T1, Protein cereblon/Tyrosine-protein kinase BTK; assay: PROTAC activity at CRBN/BTK in human Ramos cells assessed as induction of BTK degradation at 100 nM measured within 4 hrs by Western blot analysis; format: cell-based
Target sequence in this assay (Q06187 2-659 limits assumed): as the sequence (Q06187 2-659 limits assumed) above
Target sequence in this assay (Q96SW2 whole entry partner): as the sequence (Q96SW2 whole entry partner) above

[9] = target: T1, Protein cereblon/Tyrosine-protein kinase BTK; assay: PROTAC activity at CRBN/BTK in human Ramos cells assessed as induction of BTK degradation by measuring maximal efficacy incubated for 24 hrs by Western blot analysis relative to control; format: cell-based
Target sequence in this assay (Q06187 2-659 limits assumed): as the sequence (Q06187 2-659 limits assumed) above
Target sequence in this assay (Q96SW2 whole entry partner): as the sequence (Q96SW2 whole entry partner) above

RAW264.7 [10] = assay: Inhibition of NF-kappaB activation in LPS-stimulated mouse RAW264.7 cells assessed as prevention of IkappaB-alpha degradation at 0.1 to 10 uM preincubated with compound for 1 hrs followed by LPS stimulation and measured after 24 hrs by Western blot analysis; format: cell-based; conditions: dose 0.1-10 µM, time 25.0 hrs
RAW264.7 [11] = assay: Anti-inflammatory activity in LPS-stimulated mouse RAW264.7 cells assessed as reduction in IL-6 mRNA level preincubated with compound for 2 hrs followed by LPS stimulation and measured after 3 hrs […]; format: functional, cell-based; conditions: dose 0.1-10 µM, time 5.0 hrs
[12] = Clearance in Sprague-Dawley rat at 2 mg/kg, iv measured after 48 hrs by UPLC analysis; format: ADME, organism-based; conditions: in vivo
Mus musculus [13] = assay: Anti-inflammatory activity in zymosan-induced peritonitis C57BL/6J mouse model assessed as reduction in myeloid cells in peritoneal cavity preadministered intraperitoneally with compound for 1 hrs followed by zymosan administration and measured after 16 hrs by trypan blue staining based optical microscopic analysis; format: functional, organism-based; conditions: dose 10-50 mg/kg, route ip, time 17.0 hrs
[14] = AUC (0 to t) in Sprague-Dawley rat at 20 mg/kg, po by UPLC analysis; format: ADME, organism-based; conditions: in vivo
[15] = target: T1, Protein cereblon/Tyrosine-protein kinase BTK; assay: PROTAC activity at CRBN/BTK in human MINO cells assessed as induction of BTK degradation incubated for 24 hrs by Western blot analysis; format: cell-based
Target sequence in this assay (Q06187 whole entry): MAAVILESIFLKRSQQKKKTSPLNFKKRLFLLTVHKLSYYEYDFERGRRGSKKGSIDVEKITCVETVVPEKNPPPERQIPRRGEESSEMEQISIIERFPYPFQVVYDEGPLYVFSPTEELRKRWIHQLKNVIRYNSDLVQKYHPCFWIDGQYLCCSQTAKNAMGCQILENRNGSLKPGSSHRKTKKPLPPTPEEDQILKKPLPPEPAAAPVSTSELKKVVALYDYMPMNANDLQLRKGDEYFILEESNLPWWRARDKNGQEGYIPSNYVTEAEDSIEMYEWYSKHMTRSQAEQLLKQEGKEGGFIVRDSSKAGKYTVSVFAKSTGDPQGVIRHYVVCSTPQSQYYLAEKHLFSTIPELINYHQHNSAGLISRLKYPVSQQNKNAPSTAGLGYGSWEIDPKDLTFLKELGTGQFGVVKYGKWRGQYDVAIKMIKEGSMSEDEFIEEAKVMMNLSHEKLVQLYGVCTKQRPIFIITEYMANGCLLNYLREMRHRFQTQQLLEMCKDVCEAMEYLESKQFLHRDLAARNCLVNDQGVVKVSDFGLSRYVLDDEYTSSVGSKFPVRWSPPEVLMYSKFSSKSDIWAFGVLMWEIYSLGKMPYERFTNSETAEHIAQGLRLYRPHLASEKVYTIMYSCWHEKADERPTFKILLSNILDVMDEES
Target sequence in this assay (Q96SW2 whole entry): as the sequence (Q96SW2 whole entry partner) above

RAW264.7 [16] = assay: Inhibition of NF-kappaB activation in LPS-stimulated mouse RAW264.7 cells assessed as reduction in phosphorylated p65 level at 0.1 to 10 uM preincubated with compound for 1 hrs followed by LPS stimulation and measured after 24 hrs by Western blot analysis; format: cell-based; conditions: dose 0.1-10 µM, time 25.0 hrs
[17] = target: T1, Protein cereblon/Tyrosine-protein kinase BTK; assay: PROTAC activity at CRBN/BTK in human Ramos cells assessed as induction of BTK degradation incubated for 24 hrs by Western blot analysis; format: cell-based
Target sequence in this assay (Q06187 whole entry): as the sequence (Q06187 whole entry) above
Target sequence in this assay (Q96SW2 whole entry): as the sequence (Q96SW2 whole entry partner) above

[18] = MRT (0 to t) in Sprague-Dawley rat at 20 mg/kg, po by UPLC analysis; format: ADME, organism-based; conditions: in vivo
[19] = target: T1, Protein cereblon/Tyrosine-protein kinase BTK; assay: PROTAC activity at CRBN/BTK in human Ramos cells assessed as induction of BTK degradation at 100 nM pretreated with compound for 24 hrs followed by compound washout and measured upto 48 hrs by Western blot analysis; format: cell-based
Target sequence in this assay (Q06187 2-659 limits assumed): as the sequence (Q06187 2-659 limits assumed) above
Target sequence in this assay (Q96SW2 whole entry partner): as the sequence (Q96SW2 whole entry partner) above

[20] = target: T1, Protein cereblon/Tyrosine-protein kinase BTK; assay: PROTAC activity at CRBN/BTK in human Ramos cells assessed as induction of BTK degradation at 100 nM pretreated with ibrutinib for 2 hrs followed by compound treatment and measured after 8 hrs by Western blot analysis; format: cell-based
Target sequence in this assay (Q06187 2-659 limits assumed): as the sequence (Q06187 2-659 limits assumed) above
Target sequence in this assay (Q96SW2 whole entry partner): as the sequence (Q96SW2 whole entry partner) above

[21] = target: Protein cereblon/Tyrosine-protein kinase BTK (Mus musculus) (UniProt P35991+Q8C7D2); assay: PROTAC activity at CRBN/BTK in mouse RAW264.7 cells assessed as induction of BTK degradation by Western blot analysis; format: cell-based; conditions: dose 0.1-10 µM
Sequence of Protein cereblon/Tyrosine-protein kinase BTK (Mus musculus) (P35991 whole entry, looked up): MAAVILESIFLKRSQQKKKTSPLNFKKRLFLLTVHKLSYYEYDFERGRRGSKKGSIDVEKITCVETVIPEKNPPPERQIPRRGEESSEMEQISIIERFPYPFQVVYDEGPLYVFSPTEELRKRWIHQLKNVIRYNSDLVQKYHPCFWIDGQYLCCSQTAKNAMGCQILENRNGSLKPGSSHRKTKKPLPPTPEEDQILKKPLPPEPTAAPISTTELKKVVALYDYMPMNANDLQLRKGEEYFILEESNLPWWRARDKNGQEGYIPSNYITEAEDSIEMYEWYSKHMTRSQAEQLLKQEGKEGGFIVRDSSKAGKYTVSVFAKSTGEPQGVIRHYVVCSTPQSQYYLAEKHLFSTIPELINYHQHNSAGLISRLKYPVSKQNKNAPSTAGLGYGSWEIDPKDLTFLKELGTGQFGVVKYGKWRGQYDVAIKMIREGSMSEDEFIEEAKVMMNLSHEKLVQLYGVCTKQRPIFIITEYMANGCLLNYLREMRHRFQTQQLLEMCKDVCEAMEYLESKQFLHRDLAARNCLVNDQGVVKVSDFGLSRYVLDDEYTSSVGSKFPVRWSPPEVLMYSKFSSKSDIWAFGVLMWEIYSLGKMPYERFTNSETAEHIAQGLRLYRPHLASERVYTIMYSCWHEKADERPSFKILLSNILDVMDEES
Sequence of Protein cereblon/Tyrosine-protein kinase BTK (Mus musculus) (Q8C7D2 whole entry, looked up): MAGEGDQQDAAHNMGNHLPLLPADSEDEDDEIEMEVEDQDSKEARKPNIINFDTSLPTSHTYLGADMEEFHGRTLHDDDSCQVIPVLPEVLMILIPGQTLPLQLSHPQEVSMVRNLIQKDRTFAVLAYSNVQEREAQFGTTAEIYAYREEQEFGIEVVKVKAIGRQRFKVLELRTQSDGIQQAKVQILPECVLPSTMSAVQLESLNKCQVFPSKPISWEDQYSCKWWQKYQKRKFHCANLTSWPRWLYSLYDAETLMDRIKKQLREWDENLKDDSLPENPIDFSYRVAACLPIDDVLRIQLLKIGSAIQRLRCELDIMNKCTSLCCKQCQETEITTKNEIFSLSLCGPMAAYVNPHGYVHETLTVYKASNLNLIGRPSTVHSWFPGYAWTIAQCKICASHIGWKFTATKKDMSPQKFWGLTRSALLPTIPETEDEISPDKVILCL

[22] = MRT (0 to infinity) in Sprague-Dawley rat at 20 mg/kg, po by UPLC analysis; format: ADME, organism-based; conditions: in vivo
[23] = target: T1, Protein cereblon/Tyrosine-protein kinase BTK; assay: PROTAC activity at CRBN/BTK in human MINO cells assessed as hook effect upto 10000 nM incubated for 24 hrs by Western blot analysis; format: cell-based
Target sequence in this assay (Q06187 2-659 limits assumed): as the sequence (Q06187 2-659 limits assumed) above
Target sequence in this assay (Q96SW2 whole entry partner): as the sequence (Q96SW2 whole entry partner) above

[24] = MRT (0 to infinity) in Sprague-Dawley rat at 2 mg/kg, iv measured after 48 hrs by UPLC analysis; format: ADME, organism-based; conditions: in vivo
RAW264.7 [25] = assay: Anti-inflammatory activity in LPS-stimulated mouse RAW264.7 cells assessed as reduction in IL-1beta secretion at 0.1 to 10 uM preincubated with compound for 2 hrs followed by LPS stimulation and measured after 3 hrs by ELISA analysis; format: functional, cell-based; conditions: dose 0.1-10 µM, time 5.0 hrs
[26] = target: T1, Protein cereblon/Tyrosine-protein kinase BTK; assay: PROTAC activity at CRBN/BTK in human Ramos cells assessed as hook effect at 10000 nM incubated for 24 hrs by Western blot analysis; format: cell-based
[27] = AUC (0 to infinity) in Sprague-Dawley rat at 20 mg/kg, po by UPLC analysis; format: ADME, organism-based; conditions: in vivo
[28] = AUC (0 to infinity) in Sprague-Dawley rat at 2 mg/kg, iv measured after 48 hrs by UPLC analysis; format: ADME, organism-based; conditions: in vivo
[29] = Half-life in Sprague-Dawley rat at 2 mg/kg, iv measured after 48 hrs by UPLC analysis; format: ADME, organism-based; conditions: in vivo
[30] = Cmax in Sprague-Dawley rat at 2 mg/kg, iv measured after 48 hrs by UPLC analysis; format: ADME, organism-based; conditions: in vivo
[31] = Aqueous solubility of compound incubated for 24 hrs by HPLC based shake flask method; format: physicochemical; conditions: buffer
[32] = target: T1, Protein cereblon/Tyrosine-protein kinase BTK; assay: PROTAC activity at CRBN/BTK in human Ramos cells assessed as induction of BTK degradation at 100 nM pretreated with pomalidomide for 2 hrs followed by compound treatment and measured after 8 hrs by Western blot analysis; format: cell-based
[33] = Cmax in Sprague-Dawley rat at 20 mg/kg, po by UPLC analysis; format: ADME, organism-based; conditions: in vivo
[34] = target: T1, Protein cereblon/Tyrosine-protein kinase BTK; assay: PROTAC activity at CRBN/BTK in human Ramos cells assessed as induction of BTK degradation at 100 nM incubated for 24 hrs by Western blot analysis relative to control; format: cell-based
[35] = target: T1, Protein cereblon/Tyrosine-protein kinase BTK; assay: PROTAC activity at CRBN/BTK in human Ramos cells assessed as induction of BTK degradation at 100 nM pretreated with MG132 for 2 hrs followed by compound treatment and measured after 8 hrs by Western blot analysis; format: cell-based
[36] = MRT (0 to t) in Sprague-Dawley rat at 2 mg/kg, iv measured after 48 hrs by UPLC analysis; format: ADME, organism-based; conditions: in vivo
Mus musculus [37] = assay: Anti-inflammatory activity in zymosan-induced peritonitis C57BL/6J mouse model assessed as decrease in IL-1beta level in peritoneal cavity preadministered intraperitoneally with compound for 1 hrs followed by zymosan administration and measured after 16 hrs by ELISA; format: functional, organism-based; conditions: dose 10-50 mg/kg, route ip, time 17.0 hrs
[38] = AUC (0 to t) in Sprague-Dawley rat at 2 mg/kg, iv measured after 48 hrs by UPLC analysis; format: ADME, organism-based; conditions: in vivo
RAW264.7 [39] = assay: Anti-inflammatory activity in LPS-stimulated mouse RAW264.7 cells assessed as reduction in IL-6 secretion at 0.1 to 10 uM preincubated with compound for 2 hrs followed by LPS stimulation and measured after 3 hrs by ELISA analysis; format: functional, cell-based; conditions: dose 0.1-10 µM, time 5.0 hrs
Mus musculus [40] = assay: Anti-inflammatory activity in zymosan-induced peritonitis C57BL/6J mouse model assessed as decrease in IL-6 level in peritoneal cavity preadministered intraperitoneally with compound for 1 hrs followed by zymosan administration and measured after 16 hrs by ELISA; format: functional, organism-based; conditions: dose 10-50 mg/kg, route ip, time 17.0 hrs
[41] = target: T1, Protein cereblon/Tyrosine-protein kinase BTK; assay: PROTAC activity at CRBN/BTK in human Ramos cells assessed as induction of BTK degradation at 100 nM pretreated with bafilomycin for 2 hrs followed by compound treatment and measured after 8 hrs by Western blot analysis; format: cell-based
[42] = Apparent volume of distribution in Sprague-Dawley rat at 2 mg/kg, iv measured after 48 hrs by UPLC analysis; format: ADME, organism-based; conditions: in vivo, read-out: Vz
[43] = target: T1, Protein cereblon/Tyrosine-protein kinase BTK; assay: PROTAC activity at CRBN/BTK in human Ramos cells assessed as induction of BTK degradation at 100 nM measured after 8 hrs by Western blot analysis relative to control; format: cell-based

Nc1ncnc2c1c(-c1ccc(Oc3ccccc3)cc1)nn2C1CCN(C(=O)CN2CCN(CC3CN(c4ccc5c(c4)C(=O)N(C4CCC(=O)NC4=O)C5=O)C3)CC2)CC1 (stereo not drawn)
bioavailability [1]: 0.25% | half-life [2]: 2.12 h | Emax [3]: 100% | Activity (RAW264.7 [4]): Dose-Dependent Effect | Activity (RAW264.7 [5]): Non-Toxic | inhibition (RAW264.7 [6]): Active | inhibition (RAW264.7 [7]): Active | Activity [8]: Active | Emax [9]: 99.9% | inhibition (RAW264.7 [10]): Active | Activity (RAW264.7 [11]): Dose-Dependent Effect | clearance [12]: 37.5 mL/min/kg | Activity (Mus musculus [13]): Dose-Dependent Effect | AUC(0-t) [14]: 27.1 ng·h/mL | EC50 [15]: 7.07 nM | inhibition (RAW264.7 [16]): Active | EC50 [17]: 3.18 nM | MRT last [18]: 4.95 h | Activity [19]: Active | Activity [20]: inactive | Activity [21]: Dose-Dependent Effect | MRT inf [22]: 5.23 h | Activity [23]: inactive | MRT inf [24]: 1.37 h | Activity (RAW264.7 [25]): Active | Activity [26]: Active | AUC(0-inf) [27]: 29 ng·h/mL | AUC(0-inf) [28]: 934 ng·h/mL | half-life [29]: 1.82 h | Cmax [30]: 1890 ng/mL | solubility thermodynamic at 24 h [31]: 8.16 µg/mL (≈ 9.74 µM) | Activity [32]: inactive | Cmax [33]: 9.7 ng/mL | Activity [34]: 99.4% | Activity [35]: inactive | MRT last at 48 h [36]: 1.27 h | Activity (Mus musculus [37]): Dose-Dependent Effect | AUC(0-t) at 48 h [38]: 926 ng·h/mL | Activity (RAW264.7 [39]): Active | Activity (Mus musculus [40]): Dose-Dependent Effect | Activity [41]: Active | Vd [42]: 5.85 L/kg | Activity [43]: 100%
